# Test results published in paper PMC6366404, “4-(3-Nitrophenyl)thiazol-2-ylhydrazone derivatives as antioxidants and selective hMAO-B inhibitors: synthesis, biological activity and computational analysis” (Journal of Enzyme Inhibition and Medicinal Chemistry, 2019).
# Where two headings read alike, the source gives them in different places.
# Tests used:
# hMAO-B [1] = target: T1, hMAO-B (Homo sapiens, UniProt P27338); assay: hMAO-B inhibition, IC50 determination (kynuramine fluorescence); assay type: biochemical; conditions: for Selectivity index (SI) for the MAO-B isoform: ratio (IC50 hMAO-A)/(IC50 hMAO-B)
# T1 sequence (P27338 1-520): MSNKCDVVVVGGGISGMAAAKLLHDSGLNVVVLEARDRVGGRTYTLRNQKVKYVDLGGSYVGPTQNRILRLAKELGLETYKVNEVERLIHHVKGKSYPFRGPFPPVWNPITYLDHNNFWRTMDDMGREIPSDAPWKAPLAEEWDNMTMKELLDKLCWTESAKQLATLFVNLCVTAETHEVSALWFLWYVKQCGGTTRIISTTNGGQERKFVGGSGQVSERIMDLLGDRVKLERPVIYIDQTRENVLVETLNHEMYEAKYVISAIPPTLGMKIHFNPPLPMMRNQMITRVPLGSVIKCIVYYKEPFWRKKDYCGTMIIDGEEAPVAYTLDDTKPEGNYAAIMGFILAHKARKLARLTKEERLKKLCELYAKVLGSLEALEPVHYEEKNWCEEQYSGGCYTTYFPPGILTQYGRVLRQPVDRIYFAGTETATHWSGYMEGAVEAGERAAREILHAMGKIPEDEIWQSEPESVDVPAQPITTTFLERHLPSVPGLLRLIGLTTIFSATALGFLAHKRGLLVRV
# Protocol: (§1) The procedure for the measurement of IC50 values for the inhibition of MAO has been reported. The enzyme reactions were prepared to a volume of […] in potassium phosphate buffer at pH 7.4 (100 mM, made isotonic with KCl) and contained kynuramine (50 μM) and the test inhibitors (0.003–100 µM). Stock solutions of the test inhibitors were prepared in DMSO and added to the reactions to yield 4% DMSO. The enzyme reactions were initiated with the addition of recombinant hMAO-A (0.0075 mg protein/mL) or hMAO-B (0.015 mg protein/mL) and incubated for 20 min at 37 °C. At endpoint, the reactions were terminated with 80 µL sodium hydroxide (2N) and the fluorescence of 4-hydroxyquinoline, the oxidation product of kynuramine, was measured (λex = 310; λem = 400 nm)[33]. 4-Hydroxyquinoline was quantified with a calibration curve (0.047–1.56 μM) and the rate of 4-hydroxyquinoline formation was fitted to the one site competition model of the Prism 5 software package (GraphPad). From the resulting sigmoidal plots, the IC50 values were estimated. All enzyme reactions were carried out in triplicate and IC50 values are given as the mean ± standard deviation (SD).
# [2] = Cupric ion reducing activity (CUPRAC)
# Protocol: The cupric ion reducing activity (CUPRAC) was determined according to the method of Zengin et al.[38]. The sample solution (0.5 ml) was added to a premixed reaction mixture containing CuCl2 (1 ml, 10 mM), neocuproine (1 ml, 7.5 mM), and NH4Ac buffer (1 ml, 1 M, pH 7.0). Similarly, a blank was prepared by adding the sample solution (0.5 ml) to a premixed reaction mixture (3 ml) without CuCl2. The absorbances of the sample and blank were subsequently recorded at 450 nm after 30 min incubation at room temperature. The absorbance of the blank was subtracted from that of the sample.
# (§2) The FRAP (ferric reducing antioxidant power) assay was carried out as described by Zengin et al.[38]. The sample solution (0.1 ml) was added to the premixed FRAP reagent (2 ml) containing acetate buffer (0.3 M, pH 3.6), 2,4,6-tris(2-pyridyl)-s-triazine (10 mM) in 40 mM HCl, and ferric chloride (20 mM) in a ratio of 10/1/1 (v/v/v). The absorbance of the sample was subsequently recorded at 593 nm after 30 min incubation at room temperature. Both results were expressed as EC50 values, using trolox as a reference drug.
# [3] = ABTS radical cation scavenging activity
# Protocol: (§3) The scavenging activity of the compounds on the ABTS radical cation [ABTS,2,2′-azino-bis(3-ethylbenzothiazoline)-6-sulphonic acid] was measured according to the method of Zengin et al.[37] with slight modification. Briefly, ABTS^+ was produced directly by reacting a 7 mM ABTS solution with 2.45 mM potassium persulphate and allowing the mixture to incubate for 12–16 h in the dark at room temperature. Prior to initiating the assay, the ABTS solution was diluted with methanol to an absorbance of 0.700 ± 0.02 at 734 nm. The sample solution (1 ml) was added to the ABTS^+ solution (2 ml) and mixed, and the sample absorbance was recorded at 734 nm after 30 min incubation at room temperature. The corresponding IC50 value, which is the effective concentration at which 50% of DPPH/ABTS radicals are scavenged, was calculated for each compound and trolox, as a reference drug.
# [4] = Metal chelating activity on ferrous ions; conditions: ferrozine
# Protocol: Metal chelating activity on ferrous ions was evaluated by the method previously described. Briefly, the sample solution (2 ml) was added to FeCl2 solution (0.05 ml, 2 mM). The reaction was initiated by the addition of 5 mM ferrozine (0.2 ml). Similarly, a blank was prepared by adding the sample solution (2 ml) to FeCl2 solution (0.05 ml, 2 mM) and water (0.2 ml) without ferrozine. Then, the sample and blank absorbance were recorded at 562 nm after incubation for 10 min at room temperature. The absorbance of the blank was subtracted from that of the sample. EDTA was used as a positive control and this property was expressed as IC50 value for each compound.
# [5] = DPPH radical scavenging activity
# Protocol: The radical scavenging effect of the compounds using the 1,1-diphenyl-2-picrylhydrazyl (DPPH) radical was estimated according to Zengin et al.[36]. The sample solution (1 ml) was added to 4 ml of a 0.004% solution of DPPH in methanol. The sample absorbance was recorded at 517 nm after 30 min incubation at room temperature in the dark.
# as §3
# [6] = Phosphomolybdenum assay (PhosphoMo), total antioxidant activity; conditions: concentration at which absorbance was 0.5
# Protocol: The total antioxidant activity of the compounds was evaluated by phosphomolybdenum method according to Zengin et al.[35]. The sample solution (0.3 ml) was combined with 3 ml of reagent solution (0.6 M sulphuric acid, 28 mM sodium phosphate, and 4 mM ammonium molybdate) and the absorbance was recorded at 695 nm after 90 min incubation at 95 °C. The EC50, which is the effective concentration at which the absorbance was 0.5, was calculated for each compound and trolox, as a reference drug.
# [7] = FRAP (ferric reducing antioxidant power) assay
# Protocol: as §2
# hMAO-A = target: T2, hMAO-A (Homo sapiens, UniProt P21397); assay: hMAO-A inhibition, IC50 determination (kynuramine fluorescence); assay type: biochemical; conditions: recombinant hMAO-A, kynuramine 50 μM, 20 min, 37 °C; read-out: IC50 hMAO-A
# T2 sequence (P21397 1-527): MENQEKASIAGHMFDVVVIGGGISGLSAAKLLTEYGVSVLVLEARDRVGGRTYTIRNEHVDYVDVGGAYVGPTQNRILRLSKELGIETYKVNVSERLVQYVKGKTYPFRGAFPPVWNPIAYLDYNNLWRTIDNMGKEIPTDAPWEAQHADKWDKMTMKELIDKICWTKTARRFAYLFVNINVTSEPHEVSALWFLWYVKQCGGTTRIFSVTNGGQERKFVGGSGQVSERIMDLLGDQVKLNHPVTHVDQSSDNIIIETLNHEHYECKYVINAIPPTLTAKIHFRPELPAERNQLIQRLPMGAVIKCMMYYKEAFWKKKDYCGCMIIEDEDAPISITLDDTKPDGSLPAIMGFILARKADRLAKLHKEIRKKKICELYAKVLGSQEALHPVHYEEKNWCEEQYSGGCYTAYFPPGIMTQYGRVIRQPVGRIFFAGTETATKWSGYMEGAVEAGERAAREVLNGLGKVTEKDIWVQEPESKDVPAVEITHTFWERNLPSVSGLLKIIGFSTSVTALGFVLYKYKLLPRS
# Protocol: as §1
# hMAO-B [8] = target: T1, hMAO-B; assay: Lineweaver-Burk plots, mode of inhibition and Ki; assay type: biochemical
# Protocol: To construct Lineweaver–Burk plots, the enzyme reactions were carried out to a volume of 500 µL and the concentration of MAO-B was 0.015 mg protein/mL. All enzyme reactions and activity measurements were carried out as described above for the dialysis experiments. The first plot was constructed in the absence of inhibitor, while the remaining five plots were constructed in the presence of the following concentrations: ¼ × IC50, ½ × IC50, ¾ × IC50, 1 × IC50 and 1¼ × IC50. For each line, kynuramine was used at concentrations of 15–250 μM. The Ki value was estimated from a plot of the slopes of the Lineweaver–Burk plots versus inhibitor concentration (x-axis intercept equals –Ki).
# To provide further support for the reversibility of MAO-B inhibition by compounds 4 and 37, a set of Lineweaver–Burk plots was constructed for each inhibitor at the following inhibitor concentrations: ¼ × IC50, ½ × IC50, ¾ × IC50, 1 × IC50, and 1¼ × IC50. The substrate, kynuramine, was used at 15–250 µM for each line. […] The lines of the plots intersect on the y-axis and a replot of the slopes versus inhibitor concentration yields a linear line, from which the enzyme-inhibitor dissociation constant (Ki) was estimated (Ki = −x-axis intercept).
# hMAO-B [9] = target: T1, hMAO-B; assay: Reversibility of MAO-B inhibition by dialysis; assay type: biochemical
# Protocol: Stock solutions of the test compounds were prepared in DMSO and added to the incubations to yield 4% DMSO. The samples were dialyzed for 24 h at 4 °C in 80 ml of dialysis buffer using Slide-A-Lyzer® dialysis cassettes (Thermo Scientific) with a molecular weight cut-off of 10,000 and a sample volume capacity of 0.5–3 ml. The dialysis buffer was replaced at 3 and 7 h after the start of dialysis. Following dialysis, the dialysis samples were diluted twofold with the addition of kynuramine to yield a kynuramine concentration and inhibitor concentration of 50 µM and 2 × IC50, respectively. The reactions (500 µL) were incubated for 20 min at 37 °C and terminated with NaOH (400 μL, 2 N) and water (1000 µL). The fluorescence of 4-hydroxyquinoline in these samples was measured as described for the IC50 determination above. […] Undialysed mixtures of MAO-B and the test inhibitors were maintained at 4 °C for 24 h and diluted and assayed as above. All reactions were carried out in triplicate and the residual enzyme catalytic rates are expressed as mean ± SD.
# Reversibility of MAO inhibition is an important factor to consider when evaluating the inhibition properties of potential inhibitors. Irreversible MAO inhibitors, particularly of the MAO-A isoform, are associated with dangerous adverse effects such as the cheese reaction, which occurs when irreversible MAO-A inhibitors are taken with tyramine-rich food[51]. […] The samples were diluted twofold and the residual MAO-B activity was measured. For reversible inhibition, dialysis is expected to reverse inhibition by the test inhibitors and restore enzyme activity to the level of the negative control. […] A final experiment consisted of incubations containing MAO-B and tested inhibitors which were not dialyzed, but maintained for 24 h.
# [10] = recombinant hMAO-B, kynuramine 50 μM, 20 min, 37 °C, read-out: IC50 hMAO-B
Structure (SMILES),IC50 (hMAO-B [1]; [10]) [µM],melting point [°C],EC50 [2] [µM],IC50 [3] [µM],IC50 (hMAO-B [1]) [µM],IC50 [4] [µM],IC50 [5] [µM],EC50 [6] [µM],EC50 [7] [µM],Selectivity index (SI) for the MAO-B isoform (hMAO-B [1]),also measured
"O=[N+]([O-])c1cccc(-c2csc(NN=Cc3ccco3)n2)c1 [Compound 1, 1-(Furan-2-ylmethylene)-2-(4-(3-nitrophenyl)thiazol-2-yl)hydrazine]",0.095,213 to 215,,,,,,,,,
"CC(=NNc1nc(-c2cccc([N+](=O)[O-])c2)cs1)c1ccsc1 [Compound 5, 1-(4-(3-Nitrophenyl)thiazol-2-yl)-2-(1-(thiophen-3-yl)ethylidene)hydrazine]",,,480 ± 30,1050 ± 20,0.0025,> 5000,1210 ± 10,1160 ± 30,520 ± 20,,
"CC(=NNc1nc(-c2cccc([N+](=O)[O-])c2)cs1)c1ccccc1 [Compound 11, 1-(4-(3-Nitrophenyl)thiazol-2-yl)-2-(1-phenylethylidene)hydrazine]",,261 to 263,550 ± 20,1040 ± 10,0.0071,> 5000,1280 ± 10,1460 ± 80,590 ± 10,666,
"CC(=NNc1nc(-c2cccc([N+](=O)[O-])c2)cs1)c1ccccc1[N+](=O)[O-] [Compound 13, 1-(1-(2-Nitrophenyl)ethylidene)-2-(4-(3-nitrophenyl)thiazol-2-yl)hydrazine]",0.0044,,400 ± 10,1040 ± 10,,> 5000,1590 ± 10,3100 ± 360,450 ± 40,3477,
"CC(=O)c1ccc(C(C)=NNc2nc(-c3cccc([N+](=O)[O-])c3)cs2)cc1 [Compound 31, 1-(1-(4-Acetylphenyl)ethylidene)-2-(4-(3-nitrophenyl)thiazol-2-yl)hydrazine]",42.1,205 to 207,,,,,,,,5.4,
"CC(=NNc1nc(-c2cccc([N+](=O)[O-])c2)cs1)c1ccc2ccc3ccccc3c2c1 [Compound 34, 1-(4-(3-Nitrophenyl)thiazol-2-yl)-2-(1-(phenanthren-3-yl)ethylidene)hydrazine]",80.5,255 to 257,,,,,,,,,IC50 (hMAO-A): 101 µM
Nc1cccc(-c2csc(N/N=C/c3cccs3)n2)c1 [Compound 37],,,,,2.67,,,,,,"Ki (hMAO-B [8]): 1.84 µM; Mode of MAO-B inhibition (hMAO-B [8]; Lineweaver-Burk plots): competitive; Reversibility of MAO-B inhibition (hMAO-B [9]; dialysis 24 h): fully reversible; Residual MAO-B activity, undialysed mixtures (hMAO-B [9]; inhibitor at 4 × IC50, not dialyzed, maintained 24 h): 20%; Residual MAO-B activity after dialysis (hMAO-B [9]; inhibitor at 4 × IC50, preincubated 15 min, dialyzed 24 h, relative to negative control): 97%"
